# Measured values: US11524938B2, “Aromatic sulfonamide derivatives” (Bayer Pharma Aktiengesellschaft, priority 2016, dated 2022)
# “And” between values parts separate entries of the source, which are not always exact repeats. Equal values may be shown once. Read-outs that look alike come from different tables or passages of the source.
# Target: T1, human P2X4 (Homo sapiens, UniProt Q99571)
# T1 sequence (Q99571 1-388): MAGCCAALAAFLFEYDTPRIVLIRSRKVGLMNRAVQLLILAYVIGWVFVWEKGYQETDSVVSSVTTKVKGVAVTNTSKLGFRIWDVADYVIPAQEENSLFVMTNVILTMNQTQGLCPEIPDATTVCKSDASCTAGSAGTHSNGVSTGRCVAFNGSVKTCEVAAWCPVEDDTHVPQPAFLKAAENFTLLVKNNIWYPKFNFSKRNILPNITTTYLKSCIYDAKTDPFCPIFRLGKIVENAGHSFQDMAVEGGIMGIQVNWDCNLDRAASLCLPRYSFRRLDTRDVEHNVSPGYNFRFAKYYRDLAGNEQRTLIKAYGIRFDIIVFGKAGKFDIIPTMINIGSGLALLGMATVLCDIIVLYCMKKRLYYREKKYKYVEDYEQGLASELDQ
# Assay: Human P2X4 HEK Cell FLIPR Assay
# Type: cell-based
# Settings: agonist Bz-ATP at EC80; for Emax: percentage of maximal inhibition, read-out: Human P2X4 HEK Cells (FLIPR Assay) avg Efficacy [%]; for IC50: individual values listed where some fall outside detection range
# In short: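 Calcium flux read by FLIPR for 120 sec after Bz-ATP challenge at EC80 (established each assay day), following 30 min room-temperature compound preincubation in dye-loaded stable human P2X4 HEK293 cells. Peak RFU over basal normalized to agonist control; IC50, maximal inhibition and Hill coefficient from triplicate means.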
"Emax (HEK293, HEK293 cells) [%]",IC50 (HEK293 cells),SMILES,Emax (HEK293 cells) [%]
77,,"NS(=O)(=O)c1cc(NC(=O)Cc2ccccc2F)cnc1-n1cc(C(F)(F)F)cn1 [Example 381, 2-(2-Fluorophenyl)-N-{5-sulfamoyl-6-[4-(trifluoromethyl)-1H-pyrazol-1-yl]pyridin-3-yl}acetamide]",
87,315 nM,"N#Cc1cnn(-c2ncc(NC(=O)Cc3ccccc3F)cc2S(N)(=O)=O)c1 [Example 382, N-[6-(4-Cyano-1H-pyrazol-1-yl)-5-sulfamoylpyridin-3-yl]-2-(2-fluorophenyl)acetamide]",
93,45 nM,"N#Cc1cnn(-c2ncc(NC(=O)Cc3ccccc3Cl)cc2S(N)(=O)=O)c1 [Example 383, 2-(2-Chlorophenyl)-N-[6-(4-cyano-1H-pyrazol-1-yl)-5-sulfamoylpyridin-3-yl]acetamide]",
81,524 nM,"NS(=O)(=O)c1cc(NC(=O)Cc2ccccc2F)cnc1-n1cc(F)cn1 [Example 384, 2-(2-Fluorophenyl)-N-[6-(4-fluoro-1H-pyrazol-1-yl)-5-sulfamoylpyridin-3-yl]acetamide]",
72,47 nM,"NS(=O)(=O)c1cc(NC(=O)Cc2ccccc2Cl)cnc1-n1cc(F)cn1 [Example 385, 2-(2-Chlorophenyl)-N-[6-(4-fluoro-1H-pyrazol-1-yl)-5-sulfamoylpyridin-3-yl]acetamide]",
64,76 nM,"NS(=O)(=O)c1cc(NC(=O)Cc2ccccc2F)cnc1-n1cc(Br)cn1 [Example 386, N-[6-(4-Bromo-1H-pyrazol-1-yl)-5-sulfamoylpyridin-3-yl]-2-(2-fluorophenyl)acetamide]",
68,196 nM,"NS(=O)(=O)c1cc(NC(=O)Cc2ccccc2F)cnc1-n1cc(Cl)cn1 [Example 388, N-[6-(4-Chloro-1H-pyrazol-1-yl)-5-sulfamoylpyridin-3-yl]-2-(2-fluorophenyl)acetamide]",
77,22 nM,"NS(=O)(=O)c1cc(NC(=O)Cc2ccccc2Cl)cnc1-n1cc(Br)cn1 [Example 389, N-[6-(4-Bromo-1H-pyrazol-1-yl)-5-sulfamoylpyridin-3-yl]-2-(2-chlorophenyl)-acetamide]",
98,186 nM,"NS(=O)(=O)c1cc(NC(=O)Cc2ccccc2Cl)ccc1-c1nnc(C(F)(F)F)o1 [Example 391, 2-(2-Chlorophenyl)-N-{3-sulfamoyl-4-[5-(trifluoromethyl)-1,3,4-oxadiazol-2-yl]phenyl}acetamide]",
64,9660 nM,"NS(=O)(=O)c1cc(NC(=O)Cc2ccccc2Cl)ccc1-n1cnc(-c2cccnc2)n1 [Example 392, 2-(2-Chlorophenyl)-N-{4-[3-(pyridin-3-yl)-1H-1,2,4-triazol-1-yl]-3-sulfamoylphenyl}acetamide]",
49,,"NS(=O)(=O)c1cc(NC(=O)Cc2ccccc2F)ccc1-n1cccn1 [Example 393, 2-(2-Fluorophenyl)-N-[4-(1H-pyrazol-1-yl)-3-sulfamoylphenyl]acetamide]",
86,740 nM,"CC(C)(C)c1cnn(-c2ccc(NC(=O)Cc3ccccc3Cl)cc2S(N)(=O)=O)c1 [Example 394, N-[4-(4-tert-Butyl-1H-pyrazol-1-yl)-3-sulfamoylphenyl]-2-(2-chlorophenyl)acetamide]",
86,73 nM,"NS(=O)(=O)c1cc(NC(=O)Cc2ccccc2Cl)ccc1-n1ncc2ccccc21 [Example 395, 2-(2-Chlorophenyl)-N-[4-(1H-indazol-1-yl)-3-sulfamoylphenyl]acetamide]",
44,9.58 µM and > 25 µM (4×),"NS(=O)(=O)c1cc(NC(=O)Cc2ccccc2Cl)ccc1-n1cc2ccccc2n1 [Example 396, 2-(2-Chlorophenyl)-N-[4-(2H-indazol-2-yl)-3-sulfamoylphenyl]acetamide]",
43,> 25000 nM,"NS(=O)(=O)c1cc(NC(=O)Cc2ccccc2F)ccc1-n1cc2ccccc2n1 [Example 397, 2-(2-Fluorophenyl)-N-[4-(2H-indazol-2-yl)-3-sulfamoylphenyl]acetamide]",
57,207 nM,"NS(=O)(=O)c1cc(NC(=O)Cc2ccccc2F)ccc1-n1ncc2ccccc21 [Example 398, 2-(2-Fluorophenyl)-N-[4-(1H-indazol-1-yl)-3-sulfamoylphenyl]acetamide]",

"Emax (HEK293, HEK293 cells) [%]",IC50 (HEK293 cells),SMILES,Emax (HEK293 cells) [%]
92,84 nM,"CN(C)C(=O)c1cnn(-c2ccc(NC(=O)Cc3ccccc3Cl)cc2S(N)(=O)=O)c1 [Example 399, 1-(4-{[(2-Chlorophenyl)acetyl]amino}-2-sulfamoylphenyl)-N,N-dimethyl-1H-pyrazole-4-carboxamide]",
88,87 nM,"NS(=O)(=O)c1cc(NC(=O)Cc2ccccc2Cl)ccc1-n1cc(NC(=O)C2CC2)cn1 [Example 400, N-[1-(4-{[(2-Chlorophenyl)acetyl]amino}-2-sulfamoylphenyl)-1H-pyrazol-4-yl]cyclopropanecarboxamide]",
82,23 nM,"NS(=O)(=O)c1cc(NC(=O)Cc2ccccc2Cl)ccc1-n1cc(-c2cnccn2)cn1 [Example 401, 2-(2-Chlorophenyl)-N-{4-[4-(pyrazin-2-yl)-1H-pyrazol-1-yl]-3-sulfamoylphenyl}acetamide]",
85,41 nM,"NS(=O)(=O)c1cc(NC(=O)Cc2ccccc2Cl)ccc1-n1cc(-c2ccccn2)cn1 [Example 402, 2-(2-Chlorophenyl)-N-{4-[4-(pyridin-2-yl)-1H-pyrazol-1-yl]-3-sulfamoylphenyl}acetamide]",
88,16 nM,"NS(=O)(=O)c1cc(NC(=O)Cc2ccccc2Cl)ccc1-n1cc(-c2cccnc2)cn1 [Example 403, 2-(2-Chlorophenyl)-N-{4-[4-(pyridin-3-yl)-1H-pyrazol-1-yl]-3-sulfamoylphenyl}acetamide]",
73,175 nM,"NS(=O)(=O)c1cc(NC(=O)Cc2ccccc2Cl)ccc1-n1cc(-c2ccncn2)cn1 [Example 404, 2-(2-Chlorophenyl)-N-{4-[4-(pyrimidin-4-yl)-1H-pyrazol-1-yl]-3-sulfamoylphenyl}acetamide]",
65,5670 nM,"NS(=O)(=O)c1cc(NC(=O)Cc2ccccc2F)ccc1-n1cc(-c2ccncn2)cn1 [Example 405, 2-(2-Fluorophenyl)-N-{4-[4-(pyrimidin-4-yl)-1H-pyrazol-1-yl]-3-sulfamoylphenyl}acetamide]",
64,6840 nM,"COc1ccc(CC(=O)Nc2ccc(-n3ncc(C(F)(F)F)n3)c(S(N)(=O)=O)c2)cc1 [Example 406, 2-(4-Methoxyphenyl)-N-{3-sulfamoyl-4-[4-(trifluoromethyl)-2H-1,2,3-triazol-2-yl]phenyl}acetamide]",
86,429 nM,"COc1ccc(CC(=O)Nc2ccc(-n3cc(C(F)(F)F)nn3)c(S(N)(=O)=O)c2)cc1 [Example 407, 2-(4-Methoxyphenyl)-N-{3-sulfamoyl-4-[4-(trifluoromethyl)-1H-1,2,3-triazol-1-yl]phenyl}acetamide]",
74,2640 nM,"Cc1ccc(CC(=O)Nc2ccc(-n3ncc(C(F)(F)F)n3)c(S(N)(=O)=O)c2)cc1 [Example 408, 2-(4-Methylphenyl)-N-{3-sulfamoyl-4-[4-(trifluoromethyl)-2H-1,2,3-triazol-2-yl]phenyl}acetamide]",
85,445 nM,"Cc1ccc(CC(=O)Nc2ccc(-n3cc(C(F)(F)F)nn3)c(S(N)(=O)=O)c2)cc1 [Example 409, 2-(4-Methylphenyl)-N-{3-sulfamoyl-4-[4-(trifluoromethyl)-1H-1,2,3-triazol-1-yl]phenyl}acetamide]",
69,5450 nM,"NS(=O)(=O)c1cc(NC(=O)Cc2ccc(C(F)F)cc2)ccc1-n1ncc(C(F)(F)F)n1 [Example 410, 2-[4-(Difluoromethyl)phenyl]-N-{3-sulfamoyl-4-[4-(trifluoromethyl)-2H-1,2,3-triazol-2-yl]phenyl}acetamide]",
90,84 nM,"NS(=O)(=O)c1cc(NC(=O)Cc2ccc(C(F)F)cc2)ccc1-n1cc(C(F)(F)F)nn1 [Example 411, 2-[4-(Difluoromethyl)phenyl]-N-{3-sulfamoyl-4-[4-(trifluoromethyl)-1H-1,2,3-triazol-1-yl]phenyl}acetamide]",
68,1590 nM,"NS(=O)(=O)c1cc(NC(=O)Cc2ccccc2F)ccc1-n1ncc(C(F)(F)F)n1 [Example 412, 2-(2-Fluorophenyl)-N-{3-sulfamoyl-4-[4-(trifluoromethyl)-2H-1,2,3-triazol-2-yl]phenyl}acetamide]",
89,74 nM,"NS(=O)(=O)c1cc(NC(=O)Cc2ccccc2F)ccc1-n1cc(C(F)(F)F)nn1 [Example 413, 2-(2-Fluorophenyl)-N-{3-sulfamoyl-4-[4-(trifluoromethyl)-1H-1,2,3-triazol-1-yl]phenyl}acetamide]",

SMILES,"Emax (HEK293, HEK293 cells) [%]",IC50 (HEK293 cells),Emax (HEK293 cells) [%]
"NS(=O)(=O)c1cc(NC(=O)Cc2ccccc2F)ccc1-c1nnc(C(F)(F)F)o1 [Example 390, 2-(2-Fluorophenyl)-N-{3-sulfamoyl-4-[5-(trifluoromethyl)-1,3,4-oxadiazol-2-yl]phenyl}acetamide]",,1700 nM,91
